{
  "source": "patent US6812243B2",
  "about": "“Indole derivatives and their use for the treatment of malignant and other diseases based on pathological proliferation” (Zentaris AG, priority 1998, dated 2004)",
  "key": {"[1]": {"molecular_target": "T1, EGF receptor tyrosine kinase (Homo sapiens, UniProt P00533)", "T1 construct": "tested in intact A431 cells; endogenous in cells; host or cells: A431 cells", "T1 sequence (P00533 25-1210)": "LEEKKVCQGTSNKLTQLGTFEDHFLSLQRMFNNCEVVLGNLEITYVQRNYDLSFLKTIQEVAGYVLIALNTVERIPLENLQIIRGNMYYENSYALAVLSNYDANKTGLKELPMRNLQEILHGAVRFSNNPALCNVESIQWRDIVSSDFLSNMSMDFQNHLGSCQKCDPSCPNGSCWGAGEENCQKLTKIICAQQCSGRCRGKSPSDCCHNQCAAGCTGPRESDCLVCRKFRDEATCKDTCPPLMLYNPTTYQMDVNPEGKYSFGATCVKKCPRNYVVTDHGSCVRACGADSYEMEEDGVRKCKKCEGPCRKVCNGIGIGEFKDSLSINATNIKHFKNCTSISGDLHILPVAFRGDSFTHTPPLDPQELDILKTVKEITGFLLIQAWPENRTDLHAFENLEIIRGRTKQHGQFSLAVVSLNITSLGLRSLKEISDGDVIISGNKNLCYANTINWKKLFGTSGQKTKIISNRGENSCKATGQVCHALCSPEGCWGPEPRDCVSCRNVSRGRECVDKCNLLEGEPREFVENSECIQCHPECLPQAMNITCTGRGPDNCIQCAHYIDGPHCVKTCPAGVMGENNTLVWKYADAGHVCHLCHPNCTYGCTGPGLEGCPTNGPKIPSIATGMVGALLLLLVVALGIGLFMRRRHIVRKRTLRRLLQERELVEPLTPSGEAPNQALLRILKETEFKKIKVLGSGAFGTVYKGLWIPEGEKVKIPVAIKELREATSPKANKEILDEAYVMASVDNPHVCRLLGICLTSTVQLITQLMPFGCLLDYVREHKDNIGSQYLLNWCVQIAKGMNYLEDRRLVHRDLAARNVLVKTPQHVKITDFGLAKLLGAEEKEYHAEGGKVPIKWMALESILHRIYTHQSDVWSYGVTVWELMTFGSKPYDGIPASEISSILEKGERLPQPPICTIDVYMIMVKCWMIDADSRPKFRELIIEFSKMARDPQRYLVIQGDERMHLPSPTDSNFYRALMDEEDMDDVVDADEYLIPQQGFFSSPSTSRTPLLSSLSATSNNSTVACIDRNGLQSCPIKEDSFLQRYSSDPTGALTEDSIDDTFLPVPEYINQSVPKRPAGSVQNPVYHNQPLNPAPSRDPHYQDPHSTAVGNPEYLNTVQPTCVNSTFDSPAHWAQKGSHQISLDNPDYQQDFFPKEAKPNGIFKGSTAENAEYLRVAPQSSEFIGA", "experiment": "EGFR phosphorylation in intact A 431 cells", "type": "cell-based", "settings": "intact A431 cells; read-out: EGFR phosphorylation in vivo (A 431 cells), IC 50", "description": "The compounds according to the invention were furthermore investigated in vitro using isolated plasma membranes of Swiss 3T3 cells and using PDGF receptor purified from overexpressing cells, tested in intact A431 cells (and in some cases also in Swiss 3T3 plasma membranes) for possible inhibition of the EGF receptor tyrosine kinase and tested for inhibition of recombinant Src kinase.\n30 μM. The compounds thus have specificity for the inhibition of the PDGF receptor tyrosine kinase in relation to other tyrosine kinases."}, "Swiss 3T3 cells": {"test_system": "Swiss 3T3 cells", "experiment": "DNA synthesis in growth factor stimulated Swiss 3T3 cells", "type": "cell-based", "from_the_text": "DNA synthesis tests in Swiss 3T3 cells which are stimulated with different growth factors are suitable for characterizing selective antiproliferative actions of receptor tyrosine kinase inhibitors. The compounds were investigated with respect to their action on the DNA sythesis stimulated in these cells by PDGF-BB, bFGF, FCS and the combination of EGF and insulin. These stimulants are approximately equipotent and increase the DNA synthesis in previously growth-arrested Swiss 3T3 cells to 5- to 20-fold."}, "[2]": {"test_system": "sis-transformed NIH3T3 cells", "experiment": "Colony formation of sis-3T3 cells in soft agar", "type": "cell-based", "settings": "Mus musculus, read-out: Colony formation (sis-3T3 cells), IC 50", "from_the_text": "Furthermore, the compounds were investigated for a possible antitransforming action using sis-transformed NIH3T3 cells. In these cells, a transformed phenotype characterized, inter alia, by irregular multilayered growth and colony formation in soft agar is maintained by expression of PDGF-BB and permanent activation of the endogenous PDGF receptors."}, "PDGF receptor": {"molecular_target": "T2, PDGF receptor (Mus musculus, UniProt P05622)", "T2 construct": "other: Swiss 3T3 cells, 2 h incubation with compound; PDGFR phosphorylation in vivo (Swiss 3T3 cells), IC 50; other: intact Swiss 3T3 cells; PDGFR phosphorylation in vitro (Swiss 3T3 membranes), IC 50; other: isolated plasma membranes of Swiss 3T3 cells", "T2 sequence (P05622 32-1098)": "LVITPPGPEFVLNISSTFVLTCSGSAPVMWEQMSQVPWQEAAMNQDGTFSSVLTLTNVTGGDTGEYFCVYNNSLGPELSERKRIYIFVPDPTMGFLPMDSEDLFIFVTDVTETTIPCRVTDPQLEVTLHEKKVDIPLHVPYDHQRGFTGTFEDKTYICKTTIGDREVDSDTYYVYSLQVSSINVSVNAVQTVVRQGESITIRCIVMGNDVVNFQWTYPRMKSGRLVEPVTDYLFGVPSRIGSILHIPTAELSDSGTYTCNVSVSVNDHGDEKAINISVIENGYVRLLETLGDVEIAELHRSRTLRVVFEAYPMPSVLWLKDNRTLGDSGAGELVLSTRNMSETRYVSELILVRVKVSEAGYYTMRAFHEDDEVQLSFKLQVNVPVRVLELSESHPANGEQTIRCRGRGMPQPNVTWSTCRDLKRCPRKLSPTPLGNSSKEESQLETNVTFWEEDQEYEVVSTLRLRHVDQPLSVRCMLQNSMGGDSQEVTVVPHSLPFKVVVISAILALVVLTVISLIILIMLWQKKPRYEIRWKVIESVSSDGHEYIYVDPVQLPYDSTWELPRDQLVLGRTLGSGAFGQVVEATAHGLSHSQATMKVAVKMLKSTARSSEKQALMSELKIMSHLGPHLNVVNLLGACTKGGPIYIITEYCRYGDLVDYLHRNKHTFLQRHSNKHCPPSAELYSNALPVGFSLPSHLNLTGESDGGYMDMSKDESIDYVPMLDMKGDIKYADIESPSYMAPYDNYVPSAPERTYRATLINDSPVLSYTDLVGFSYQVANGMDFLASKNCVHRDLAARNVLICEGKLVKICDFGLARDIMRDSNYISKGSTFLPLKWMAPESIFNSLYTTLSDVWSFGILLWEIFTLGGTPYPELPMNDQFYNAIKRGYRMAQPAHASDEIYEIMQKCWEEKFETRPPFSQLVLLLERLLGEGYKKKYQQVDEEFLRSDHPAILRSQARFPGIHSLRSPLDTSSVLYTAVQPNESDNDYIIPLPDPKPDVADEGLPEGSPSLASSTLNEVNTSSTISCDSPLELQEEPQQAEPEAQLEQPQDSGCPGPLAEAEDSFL", "experiment": "Inhibition of PDGF-dependent tyrosine phosphorylation in intact Swiss 3T3 cells", "type": "cell-based", "settings": "2 h incubation with compound, PDGF-BB 100 ng/ml for 5 min, read-out: IC 50 (μM), inhibition of PDGF-dependent tyrosine phosphorylation", "method": "Swiss 3T3 cells are cultured for 1 week under standard conditions (DMEM with glutamine, 4 g of glucose/1, 10% FCS, antibiotics, 5-7.5% CO2) and are confluent and no longer proliferating at the end of the culture period. The medium is replaced by serum-free DMEM and the cells are incubated at 37° C. for 2 h with the compounds according to the invention or, in control experiments, with DMSO (final concentration 0.1-1%). The cells are then stimulated at room temperature for 5 min by addition of PDGF-BB to a final concentration of 100 ng/ml, in controls addition of the corresponding solvent takes place. The cells are then washed twice with ice-cold PBS and lysed in a Triton X-100-containing lysis buffer (composition and process as described in Selective platelet-derived growth factor receptor kinase blockers reverse sis-transformation M. Kovalenko, A. Gazit, A. Böhmer, C. Rorsman, L. Rönnstrand, C. H. Heldin, J. Waltenberger, F. D. Böhmer, A. Levitzki (1994) Cancer Res. 54, 6106-6114). The lysates are centrifuged and the protein concentration is determined. […]\nTyrosine phosphorylation is detected by standard processes using antiphosphosphotyrosine [sic]antibodies. […] Quantification is carried out either by grey value analyses of films used for the luminescence detection or directly using a luminometer. […]"}},
  "note": "Like-named read-outs stand apart in the source and are kept apart here.",
  "data": [
    {"smiles": "O=C(c1cc2ccccc2[nH]1)c1cc2ccccc2[nH]1", "note": "[Example 19, Bisindol-2-ylmethan-1-one]", "values": [
      {"measurement": "IC50", "setting": "[1]", "result": "> 10", "unit": "µM"},
      {"measurement": "IC50", "setting": "Swiss 3T3 cells; Swiss-3T3, read-out: DNA synthesis (Swiss 3T3 cells), 10% FCS, IC 50", "result": "> 30", "unit": "µM"},
      {"measurement": "IC50", "setting": "Swiss 3T3 cells; Swiss-3T3, read-out: DNA synthesis (Swiss 3T3 cells), EGF/insulin-stimulated, IC 50", "result": "> 30", "unit": "µM"},
      {"measurement": "IC50", "setting": "Swiss 3T3 cells; Swiss-3T3, read-out: DNA synthesis (Swiss 3T3 cells), FGF-stimulated, IC 50", "result": "3 to 10", "unit": "µM"},
      {"measurement": "IC50", "setting": "Swiss 3T3 cells; Swiss-3T3, read-out: DNA synthesis (Swiss 3T3 cells), PDGF-stimulated, IC 50", "result": "3 to 10", "unit": "µM"},
      {"measurement": "IC50", "setting": "[2]", "result": "3 to 10", "unit": "µM"}
    ]},
    {"smiles": "COc1ccc2[nH]c(C(=O)c3cc4ccccc4[nH]3)cc2c1", "note": "[Example 20, (5-Methoxyindol-2-yl)-(indol-2-yl)methan-1-one]", "values": [
      {"measurement": "IC50", "setting": "[1]", "result": "> 10", "unit": "µM"},
      {"measurement": "melting point", "result": "233 to 235", "unit": "°C"}
    ]},
    {"smiles": "O=C(Cc1cccs1)Oc1ccc2[nH]c(C(=O)c3cc4ccccc4[nH]3)cc2c1", "note": "[Example 58]", "values": [
      {"measurement": "IC50", "setting": "PDGF receptor", "result": "0.3 to 1", "unit": "µM"}
    ]},
    {"smiles": "CN1C(=O)C(Br)=C(c2c(CCCCc3[nH]c4ccccc4c3C3=C(Br)C(=O)N(C)C3=O)[nH]c3ccccc23)C1=O", "note": "[Example 117, 3-Bromo-4-(2-(4-(3-(4-bromo-1-methyl-2,5-dioxo-2,5-dihydro-1H-3-pyrrolyl)-1H-2-indolyl)butyl)-1H-3-indolyl)-1-methyl-2,5-dihydro-1H-pyrrole-2,5-dione]", "values": [
      {"measurement": "melting point", "result": "190 °C (dec.)"}
    ]},
    {"smiles": "CN1C(=O)C(Br)=C(c2c(CCCCCCCCc3[nH]c4ccccc4c3C3=C(Br)C(=O)N(C)C3=O)[nH]c3ccccc23)C1=O", "note": "[Example 118, 3-Bromo-4-(2-(8-(3-(4-bromo-1-methyl-2,5-dioxo-2,5-dihydro-1H-3-pyrrolyl)-1H-2-indolyl)octyl)-1H-3-indolyl)-1-methyl-2,5-dihydro-1H-pyrrole-2,5-dione]", "values": [
      {"measurement": "melting point", "result": "185 °C (dec.)"}
    ]},
    {"smiles": "O=C1NC(=O)C(c2c(CCCCCCCCCCc3[nH]c4ccccc4c3C3=C(Br)C(=O)NC3=O)[nH]c3ccccc23)=C1Br", "note": "[Example 120, 3-Bromo-4-(2-(10-(3-(4-bromo-2,5-dioxo-2,5-dihydro-1H-3-pyrrolyl)-1H-2-indolyl)decyl)-1H-3-indolyl)-2,5-dihydro-1H-pyrrole-2,5-dione]", "values": [
      {"measurement": "melting point", "result": "164 °C (dec.)"}
    ]},
    {"smiles": "CN1C(=O)C(c2c(CCCCCc3[nH]c4ccccc4c3C3=C(N4CCCCC4)C(=O)N(C)C3=O)[nH]c3ccccc23)=C(N2CCCCC2)C1=O", "note": "[Example 124, 1-Methyl-3-(1-piperidinyl)-4-(2-(5-(3-(1-methyl-4-(1-piperidinyl)-2,5-dioxo-2,5-dihydro-1H-3-pyrrolyl)-1H-2-indolyl)pentyl)-1H-3-indolyl)-2,5-dihydro-1H-pyrrole-2,5-dione]", "values": [
      {"measurement": "melting point", "result": 262, "unit": "°C"}
    ]}
  ]
}
